In PubChem BioAssay (NCI):
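Values below derive from 48-hour exposures of cells grown in 96-well plates, with endpoints linearly interpolated between the two concentrations bracketing the appropriate inhibition level. The concentration for 50% growth inhibition is given as GI50. TGI: total growth inhibition.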

How the values were obtained:
Test in all cases: NCI anticancer screen, dose series, 48 h
[1] = test system: 786-0 renal
[2] = test system: A498 renal
[3] = test system: A549 NSCLC
[4] = test system: ACHN renal
[5] = test system: BT-549 breast
[6] = test system: CAKI-1 renal
[7] = test system: CCRF-CEM leukemia
[8] = test system: COLO 205 colon
[9] = test system: DU-145 prostate
[10] = test system: EKVX NSCLC
[11] = test system: HCC-2998 colon
[12] = test system: HCT-116 colon
[13] = test system: HCT-15 colon
[14] = test system: HL-60(TB) leukemia
[15] = test system: HOP-62 NSCLC
[16] = test system: HOP-92 NSCLC
[17] = test system: HS 578T breast
[18] = test system: HT29 colon
[19] = test system: IGROV1 ovarian
[20] = test system: K-562 leukemia
[21] = test system: KM12 colon
[22] = test system: LOX IMVI melanoma
[23] = test system: M14 melanoma
[24] = test system: MALME-3M melanoma
[25] = test system: MCF7 breast
[26] = test system: MDA-MB-231 breast
[27] = test system: MDA-MB-435
[28] = test system: MOLT-4 leukemia
[29] = test system: NCI-H226 lung
[30] = test system: NCI-H23 lung
[31] = test system: NCI-H460 lung
[32] = test system: NCI-H522 lung
[33] = test system: NCI/ADR-RES ovarian
[34] = test system: OVCAR-3 ovarian
[35] = test system: OVCAR-4 ovarian
[36] = test system: OVCAR-5 ovarian
[37] = test system: OVCAR-8 ovarian
[38] = test system: PC-3 prostate
[39] = test system: RPMI-8226 leukemia
[40] = test system: RXF 393 renal
[41] = test system: SF-268 CNS
[42] = test system: SF-295 CNS
[43] = test system: SF-539 CNS
[44] = test system: SK-MEL-2 melanoma
[45] = test system: SK-MEL-28 melanoma
[46] = test system: SK-MEL-5 melanoma
[47] = test system: SK-OV-3 ovarian
[48] = test system: SN12C renal
[49] = test system: SNB-19 CNS
[50] = test system: SNB-75 CNS
[51] = test system: SR leukemia
[52] = test system: SW-620 colon
[53] = test system: T-47D breast
[54] = test system: TK-10 renal
[55] = test system: U251 CNS
[56] = test system: UACC-62 melanoma
[57] = test system: UO-31 renal

CCC#CC[C@H]1C/C=C2/C(=O)C=C[C@@H]2C/C=C\CCCC(=O)O1
GI50 [1]: 1060 nM
TGI [1]: 2400 nM
GI50 [2]: 1080 nM
TGI [2]: 2490 nM
GI50 [3]: 1240 nM
TGI [3]: 4030 nM
GI50 [4]: 763 nM
TGI [4]: 1560 nM
GI50 [5]: 1110 nM
TGI [5]: 3270 nM
GI50 [6]: 935 nM
TGI [6]: 2100 nM
GI50 [7]: 791 nM
TGI [7]: 5000 nM
GI50 [8]: 961 nM
TGI [8]: 2100 nM
GI50 [9]: 1370 nM
TGI [9]: 6240 nM
GI50 [10]: 1900 nM
TGI [10]: 7420 nM
GI50 [11]: 991 nM
TGI [11]: 1800 nM
GI50 [12]: 430 nM
TGI [12]: 2610 nM
GI50 [13]: 670 nM
TGI [13]: 2140 nM
GI50 [14]: 1070 nM
TGI [14]: 4230 nM
GI50 [15]: 1020 nM
TGI [15]: 3260 nM
GI50 [16]: 1940 nM
TGI [16]: 6330 nM
GI50 [17]: 1960 nM
TGI [17]: 14800 nM
GI50 [18]: 894 nM
TGI [18]: 2390 nM
GI50 [19]: 1470 nM
TGI [19]: 4330 nM
GI50 [20]: 661 nM
TGI [20]: 4440 nM
GI50 [21]: 848 nM
TGI [21]: 2160 nM
GI50 [22]: 698 nM
TGI [22]: 1500 nM
GI50 [23]: 1480 nM
TGI [23]: 8610 nM
GI50 [24]: 1130 nM
TGI [24]: 3240 nM
GI50 [25]: 203 nM
TGI [25]: 5820 nM
GI50 [26]: 1850 nM
TGI [26]: 9280 nM
GI50 [27]: 680 nM
TGI [27]: 2180 nM
GI50 [28]: 1240 nM
TGI [28]: 3960 nM
GI50 [29]: 1270 nM
TGI [29]: 5260 nM
GI50 [30]: 873 nM
TGI [30]: 2030 nM
GI50 [31]: 1140 nM
TGI [31]: 3650 nM
GI50 [32]: 663 nM
TGI [32]: 1830 nM
GI50 [33]: 1010 nM
TGI [33]: 17200 nM
GI50 [34]: 568 nM
TGI [34]: 3310 nM
GI50 [35]: 1500 nM
TGI [35]: 7940 nM
GI50 [36]: 1740 nM
TGI [36]: 6920 nM
GI50 [37]: 783 nM
TGI [37]: 9710 nM
GI50 [38]: 1350 nM
TGI [38]: 6050 nM
GI50 [39]: 267 nM
TGI [39]: 1860 nM
GI50 [40]: 945 nM
TGI [40]: 1960 nM
GI50 [41]: 1230 nM
TGI [41]: 4550 nM
GI50 [42]: 1430 nM
TGI [42]: 4360 nM
GI50 [43]: 1940 nM
TGI [43]: 7670 nM
GI50 [44]: 1170 nM
TGI [44]: 3520 nM
GI50 [45]: 1170 nM
TGI [45]: 3830 nM
GI50 [46]: 854 nM
TGI [46]: 1710 nM
GI50 [47]: 2360 nM
TGI [47]: 7740 nM
GI50 [48]: 954 nM
TGI [48]: 2780 nM
GI50 [49]: 1480 nM
TGI [49]: 7020 nM
GI50 [50]: 4380 nM
TGI [50]: 10800 nM
GI50 [51]: 328 nM
TGI [51]: 4260 nM
GI50 [52]: 642 nM
TGI [52]: 4150 nM
GI50 [53]: 1350 nM
TGI [53]: 10200 nM
GI50 [54]: 1740 nM
TGI [54]: 4590 nM
GI50 [55]: 706 nM
TGI [55]: 2240 nM
GI50 [56]: 559 nM
TGI [56]: 1800 nM
GI50 [57]: 730 nM
TGI [57]: 1560 nM
